From article PMC10949855 (Journal of veterinary pharmacology and therapeutics, 2022)

Test system: healthy dogs
Experiment: Sedation score
Format: in vivo, dogs (Beagles)
[1] = IV CRI 0.2 mg/kg + 0.2 mg/kg/hr for 8 hr, 0.5 hr
[2] = IV CRI 0.2 mg/kg + 0.2 mg/kg/hr for 8 hr, 1 hr
[3] = IV CRI 0.2 mg/kg + 0.2 mg/kg/hr for 8 hr, 1.5 hr
[4] = IV CRI 0.2 mg/kg + 0.2 mg/kg/hr for 8 hr, 2 hr
[5] = IV CRI 0.2 mg/kg + 0.2 mg/kg/hr for 8 hr, 3 hr
[6] = IV CRI 0.2 mg/kg + 0.2 mg/kg/hr for 8 hr, 4 hr
[7] = IV CRI 0.2 mg/kg + 0.2 mg/kg/hr for 8 hr, 5 hr
[8] = IV CRI 0.2 mg/kg + 0.2 mg/kg/hr for 8 hr, 6 hr
[9] = IV CRI 0.2 mg/kg + 0.2 mg/kg/hr for 8 hr, 7 hr
[10] = IV CRI 0.2 mg/kg + 0.2 mg/kg/hr for 8 hr, 8 hr
[11] = IV CRI 0.2 mg/kg + 0.2 mg/kg/hr for 8 hr, 9 hr
[12] = IV CRI 0.2 mg/kg + 0.2 mg/kg/hr for 8 hr, 10 hr
[13] = IV CRI 0.2 mg/kg + 0.2 mg/kg/hr for 8 hr, 11 hr
[14] = IV CRI 0.2 mg/kg + 0.2 mg/kg/hr for 8 hr, 12 hr
[15] = IV CRI 0.2 mg/kg + 0.2 mg/kg/hr for 8 hr, 24 hr

Oc1ccc2c(c1)[C@@]13CCCC[C@@]1(O)[C@@H](C2)N(CC1CCC1)CC3 [butorphanol]
number of dogs with sedation score 0 [1]: 0 | number of dogs with sedation score 1 [1]: 3 | number of dogs with sedation score 2 [1]: 2 | number of dogs with sedation score 3 [1]: 0 | number of dogs with sedation score 0 [2]: 0 | number of dogs with sedation score 1 [2]: 3 | number of dogs with sedation score 2 [2]: 1 | number of dogs with sedation score 3 [2]: 1 | number of dogs with sedation score 0 [3]: 0 | number of dogs with sedation score 1 [3]: 3 | number of dogs with sedation score 2 [3]: 1 | number of dogs with sedation score 3 [3]: 1 | number of dogs with sedation score 0 [4]: 0 | number of dogs with sedation score 1 [4]: 3 | number of dogs with sedation score 2 [4]: 2 | number of dogs with sedation score 3 [4]: 0 | number of dogs with sedation score 0 [5]: 0 | number of dogs with sedation score 1 [5]: 3 | number of dogs with sedation score 2 [5]: 2 | number of dogs with sedation score 3 [5]: 0 | number of dogs with sedation score 0 [6]: 0 | number of dogs with sedation score 1 [6]: 4 | number of dogs with sedation score 2 [6]: 1 | number of dogs with sedation score 3 [6]: 0 | number of dogs with sedation score 0 [7]: 0 | number of dogs with sedation score 1 [7]: 4 | number of dogs with sedation score 2 [7]: 1 | number of dogs with sedation score 3 [7]: 0 | number of dogs with sedation score 0 [8]: 0 | number of dogs with sedation score 1 [8]: 4 | number of dogs with sedation score 2 [8]: 1 | number of dogs with sedation score 3 [8]: 0 | number of dogs with sedation score 0 [9]: 0 | number of dogs with sedation score 1 [9]: 4 | number of dogs with sedation score 2 [9]: 1 | number of dogs with sedation score 3 [9]: 0 | number of dogs with sedation score 0 [10]: 0 | number of dogs with sedation score 1 [10]: 3 | number of dogs with sedation score 2 [10]: 2 | number of dogs with sedation score 3 [10]: 0 | number of dogs with sedation score 0 [11]: 0 | number of dogs with sedation score 1 [11]: 5 | number of dogs with sedation score 2 [11]: 0 | number of dogs with sedation score 3 [11]: 0 | number of dogs with sedation score 0 [12]: 0 | number of dogs with sedation score 1 [12]: 5 | number of dogs with sedation score 2 [12]: 0 | number of dogs with sedation score 3 [12]: 0 | number of dogs with sedation score 0 [13]: 2 | number of dogs with sedation score 1 [13]: 3 | number of dogs with sedation score 2 [13]: 0 | number of dogs with sedation score 3 [13]: 0 | number of dogs with sedation score 0 [14]: 4 | number of dogs with sedation score 1 [14]: 1 | number of dogs with sedation score 2 [14]: 0 | number of dogs with sedation score 3 [14]: 0 | number of dogs with sedation score 0 [15]: 5 | number of dogs with sedation score 1 [15]: 0 | number of dogs with sedation score 2 [15]: 0 | number of dogs with sedation score 3 [15]: 0 | time with moderate sedation or higher (sedation score >1) in at least one dog (IV bolus 0.4 mg/kg IV): 1.5 to 2 h | number of dogs with sedation score 0 (IV bolus 0.4 mg/kg, 0.5 hr): 0 | number of dogs with sedation score 1 (IV bolus 0.4 mg/kg, 0.5 hr): 6 | number of dogs with sedation score 2 (IV bolus 0.4 mg/kg, 0.5 hr): 0 | number of dogs with sedation score 3 (IV bolus 0.4 mg/kg, 0.5 hr): 0 | number of dogs with sedation score 0 (IV bolus 0.4 mg/kg, 1 hr): 0 | number of dogs with sedation score 1 (IV bolus 0.4 mg/kg, 1 hr): 6 | number of dogs with sedation score 2 (IV bolus 0.4 mg/kg, 1 hr): 0 | number of dogs with sedation score 3 (IV bolus 0.4 mg/kg, 1 hr): 0 | number of dogs with sedation score 0 (IV bolus 0.4 mg/kg, 1.5 hr): 0 | number of dogs with sedation score 1 (IV bolus 0.4 mg/kg, 1.5 hr): 5 | number of dogs with sedation score 2 (IV bolus 0.4 mg/kg, 1.5 hr): 1 | number of dogs with sedation score 3 (IV bolus 0.4 mg/kg, 1.5 hr): 0 | number of dogs with sedation score 0 (IV bolus 0.4 mg/kg, 2 hr): 0 | number of dogs with sedation score 1 (IV bolus 0.4 mg/kg, 2 hr): 5 | number of dogs with sedation score 2 (IV bolus 0.4 mg/kg, 2 hr): 1 | number of dogs with sedation score 3 (IV bolus 0.4 mg/kg, 2 hr): 0 | number of dogs with sedation score 0 (IV bolus 0.4 mg/kg, 3 hr): 0 | number of dogs with sedation score 1 (IV bolus 0.4 mg/kg, 3 hr): 6 | number of dogs with sedation score 2 (IV bolus 0.4 mg/kg, 3 hr): 0 | number of dogs with sedation score 3 (IV bolus 0.4 mg/kg, 3 hr): 0 | number of dogs with sedation score 0 (IV bolus 0.4 mg/kg, 4 hr): 1 | number of dogs with sedation score 1 (IV bolus 0.4 mg/kg, 4 hr): 5 | number of dogs with sedation score 2 (IV bolus 0.4 mg/kg, 4 hr): 0 | number of dogs with sedation score 3 (IV bolus 0.4 mg/kg, 4 hr): 0 | number of dogs with sedation score 0 (IV bolus 0.4 mg/kg, 5 hr): 1 | number of dogs with sedation score 1 (IV bolus 0.4 mg/kg, 5 hr): 5 | number of dogs with sedation score 2 (IV bolus 0.4 mg/kg, 5 hr): 0 | number of dogs with sedation score 3 (IV bolus 0.4 mg/kg, 5 hr): 0 | number of dogs with sedation score 0 (IV bolus 0.4 mg/kg, 6 hr): 5 | number of dogs with sedation score 1 (IV bolus 0.4 mg/kg, 6 hr): 1 | number of dogs with sedation score 2 (IV bolus 0.4 mg/kg, 6 hr): 0 | number of dogs with sedation score 3 (IV bolus 0.4 mg/kg, 6 hr): 0 | number of dogs with sedation score 0 (IV bolus 0.4 mg/kg, 7 hr): 5 | number of dogs with sedation score 1 (IV bolus 0.4 mg/kg, 7 hr): 1 | number of dogs with sedation score 2 (IV bolus 0.4 mg/kg, 7 hr): 0 | number of dogs with sedation score 3 (IV bolus 0.4 mg/kg, 7 hr): 0 | number of dogs with sedation score 0 (IV bolus 0.4 mg/kg, 8 hr): 6 | number of dogs with sedation score 1 (IV bolus 0.4 mg/kg, 8 hr): 0 | number of dogs with sedation score 2 (IV bolus 0.4 mg/kg, 8 hr): 0 | number of dogs with sedation score 3 (IV bolus 0.4 mg/kg, 8 hr): 0 | number of dogs with sedation score 0 (IV bolus 0.4 mg/kg, 9 hr): 6 | number of dogs with sedation score 1 (IV bolus 0.4 mg/kg, 9 hr): 0 | number of dogs with sedation score 2 (IV bolus 0.4 mg/kg, 9 hr): 0 | number of dogs with sedation score 3 (IV bolus 0.4 mg/kg, 9 hr): 0 | number of dogs with sedation score 0 (IV bolus 0.4 mg/kg, 10 hr): 6 | number of dogs with sedation score 1 (IV bolus 0.4 mg/kg, 10 hr): 0 | number of dogs with sedation score 2 (IV bolus 0.4 mg/kg, 10 hr): 0 | number of dogs with sedation score 3 (IV bolus 0.4 mg/kg, 10 hr): 0 | number of dogs with sedation score 0 (IV bolus 0.4 mg/kg, 11 hr): 6 | number of dogs with sedation score 1 (IV bolus 0.4 mg/kg, 11 hr): 0 | number of dogs with sedation score 2 (IV bolus 0.4 mg/kg, 11 hr): 0 | number of dogs with sedation score 3 (IV bolus 0.4 mg/kg, 11 hr): 0 | number of dogs with sedation score 0 (IV bolus 0.4 mg/kg, 12 hr): 6 | number of dogs with sedation score 1 (IV bolus 0.4 mg/kg, 12 hr): 0 | number of dogs with sedation score 2 (IV bolus 0.4 mg/kg, 12 hr): 0 | number of dogs with sedation score 3 (IV bolus 0.4 mg/kg, 12 hr): 0 | number of dogs with sedation score 0 (IV bolus 0.4 mg/kg, 24 hr): 4 | number of dogs with sedation score 1 (IV bolus 0.4 mg/kg, 24 hr): 0 | number of dogs with sedation score 2 (IV bolus 0.4 mg/kg, 24 hr): 0 | number of dogs with sedation score 3 (IV bolus 0.4 mg/kg, 24 hr): 0
